One test concerns the target T1, hMATE2K (Homo sapiens, UniProt Q86VL8).
T1 construct: expressed in transfected cells
Kind of test: Inhibition of ASP+ uptake in HEK 293 cells expressing hMATE2K. The class given is cell-based. To be noted: HEK 293 hMATE2K, 10 μM ASP+. How it is done: (§1) The interaction of phenanthriplatin with transporters for organic cations (OCT1-3, MATE1, and MATE2K) was investigated by measuring its effects on the uptake of the fluorescent organic cation 4-(4-dimethylamino)styryl-N-methylpyridinium (ASP^+). Microfluorometric measurements of ASP^+ uptake were performed with a fluorescence plate reader (Infinity 200, Tecan, Crailsheim, Germany; excitation at 465 nm, emission at 590 nm) as described previously for cultured HEK 293 cells (Wilde et al., [2009]). Before measurements, the culture medium in the wells of the 96 well microtiter plate containing HEK 293 cells was replaced by a HCO3- -free Ringer-like solution containing (in mM) NaCl 145, K2HPO4 1.6, KH2PO4 0.4, D-glucose 5, MgCl2 1, calcium gluconate 1.3, and pH adjusted to 7.4. Fluorescence was measured dynamically at 37°C in each well before and after ASP^+ addition to HCO3- -free Ringer-like solution, alone or together with increasing phenanthriplatin concentrations, and plotted versus time. ASP^+ (final concentration 1 or 10 μM for experiments with OCTs or MATEs, respectively) was added after the third sampling interval. Emission from the complete area of the well bottom was analyzed four times and averaged for each well. […] Background fluorescence was measured for each plate in wells with identical solutions containing no cells and subtracted from each well containing cells. […]

The target of another test is T2, hOCT3 (Homo sapiens, UniProt O75751).
T2 construct: expressed in transfected cells; gift of H. Koepsell
T2 sequence (O75751 1-556): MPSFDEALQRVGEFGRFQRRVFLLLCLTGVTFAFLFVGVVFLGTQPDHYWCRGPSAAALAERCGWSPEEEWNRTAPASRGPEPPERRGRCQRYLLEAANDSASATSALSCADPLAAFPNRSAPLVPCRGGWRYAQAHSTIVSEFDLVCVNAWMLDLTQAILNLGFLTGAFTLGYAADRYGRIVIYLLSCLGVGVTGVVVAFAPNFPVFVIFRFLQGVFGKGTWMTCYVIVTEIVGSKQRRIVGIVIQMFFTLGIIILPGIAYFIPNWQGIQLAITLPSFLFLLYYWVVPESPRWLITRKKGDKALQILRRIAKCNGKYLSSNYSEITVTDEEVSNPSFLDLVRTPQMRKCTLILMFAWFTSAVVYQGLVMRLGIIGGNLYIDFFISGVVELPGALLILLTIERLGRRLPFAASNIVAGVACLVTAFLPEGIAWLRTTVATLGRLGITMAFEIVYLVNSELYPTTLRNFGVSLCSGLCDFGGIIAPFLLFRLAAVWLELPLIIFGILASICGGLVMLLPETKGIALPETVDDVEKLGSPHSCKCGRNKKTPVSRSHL
Kind of test: Inhibition of ASP+ uptake in HEK 293 cells expressing hOCT3. The class given is cell-based. Particulars: HEK 293 hOCT3, 1 μM ASP+. How it is done: as §1

In the next test the test system is Ctr1^−/− MEFs. The test is described as follows: MTT cell viability, Ctr1-/- MEFs. Type of test: cell-based, mouse. On the procedure:
(§2) A modified 3-(4,5-dimethylthiazol-2-yl)-2,5-diphenyltetrazolium bromide (MTT) assay (Mosmann, [1983]) was used to test the chemosensitivity of cells to phenanthriplatin and, in some experiments, to cisplatin by determining the glycolysis rate via the reduction of the yellow tetrazolium salt MTT to a purple formazan dye, as previously described (Wehe et al., [2014]). Briefly, after growing for 24 h in the incubator, cells expressing or not hOCT2, hMATE1, hMATE2 or Ctr1 were treated for 10 min with platinum derivatives. Control cells were incubated with drug-free complete cell culture medium. Afterwards, the medium was carefully removed and replaced by 200 μL of fresh complete cell culture medium. After incubation for another 24 h, 10 μL of MTT solution containing 5 mg/mL of the dye were added to each well, and the cells were again incubated for 3 h. The medium was then removed and 100 μL of lysis buffer containing 10% (w/v) sodium dodecyl sulfate and 40% (v/v) dimethylformamide was added to each well. The plates were shaken for 10 min to destroy the cell structure and dissolve the blue formazan dye (Furchert et al., [2007]; Wehe et al., [2014]). Finally, the absorbance was measured at 590 nm using an automated microtiter plate reader (Infinite M200; Tecan, Männedorf, Switzerland). The percentage of viable cells in the untreated controls was compared to that for the various treatments. Experiments carried out with DAOY and UW228 cells followed a similar protocol except that these cells were incubated for 24 h with phenanthriplatin.

In the next test the test system is Ctr1^+/+ MEFs. Kind of test: MTT cell viability, Ctr1+/+ MEFs. Type of test: cell-based, mouse. How it is done:
as §2

The target of the next test is T3, mOCT1 (Mus musculus, UniProt O08966).
T3 construct: expressed in transfected cells
T3 sequence (O08966 1-556): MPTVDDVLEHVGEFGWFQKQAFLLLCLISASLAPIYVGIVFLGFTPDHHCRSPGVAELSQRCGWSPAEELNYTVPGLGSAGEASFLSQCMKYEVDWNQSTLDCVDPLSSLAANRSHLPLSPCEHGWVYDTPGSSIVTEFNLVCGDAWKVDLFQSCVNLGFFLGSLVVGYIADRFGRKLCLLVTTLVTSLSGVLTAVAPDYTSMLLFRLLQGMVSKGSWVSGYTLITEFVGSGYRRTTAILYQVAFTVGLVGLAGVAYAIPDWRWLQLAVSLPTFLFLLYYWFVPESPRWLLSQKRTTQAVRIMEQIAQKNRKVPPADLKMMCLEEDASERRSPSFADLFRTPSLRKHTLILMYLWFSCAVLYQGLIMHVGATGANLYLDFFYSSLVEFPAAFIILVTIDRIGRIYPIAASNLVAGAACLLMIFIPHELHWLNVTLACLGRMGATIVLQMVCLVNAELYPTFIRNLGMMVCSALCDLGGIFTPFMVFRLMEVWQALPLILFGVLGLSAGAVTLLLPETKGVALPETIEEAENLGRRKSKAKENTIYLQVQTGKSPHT
Kind of test: Inhibition of ASP+ uptake in HEK 293 cells expressing mOCT1. The class given is cell-based, murine. To be noted: HEK 293 mOCT1, 1 μM ASP+. On the procedure:
as §1

Consider one compound from paper PMC5982655, “Interaction of the New Monofunctional Anticancer Agent Phenanthriplatin With Transporters for Organic Cations” (Frontiers in Chemistry, 2018).

Entries after “also recorded” stand apart in the source; their conditions may differ.

T1 sequence (Q86VL8 1-566 isoform Q86VL8-3): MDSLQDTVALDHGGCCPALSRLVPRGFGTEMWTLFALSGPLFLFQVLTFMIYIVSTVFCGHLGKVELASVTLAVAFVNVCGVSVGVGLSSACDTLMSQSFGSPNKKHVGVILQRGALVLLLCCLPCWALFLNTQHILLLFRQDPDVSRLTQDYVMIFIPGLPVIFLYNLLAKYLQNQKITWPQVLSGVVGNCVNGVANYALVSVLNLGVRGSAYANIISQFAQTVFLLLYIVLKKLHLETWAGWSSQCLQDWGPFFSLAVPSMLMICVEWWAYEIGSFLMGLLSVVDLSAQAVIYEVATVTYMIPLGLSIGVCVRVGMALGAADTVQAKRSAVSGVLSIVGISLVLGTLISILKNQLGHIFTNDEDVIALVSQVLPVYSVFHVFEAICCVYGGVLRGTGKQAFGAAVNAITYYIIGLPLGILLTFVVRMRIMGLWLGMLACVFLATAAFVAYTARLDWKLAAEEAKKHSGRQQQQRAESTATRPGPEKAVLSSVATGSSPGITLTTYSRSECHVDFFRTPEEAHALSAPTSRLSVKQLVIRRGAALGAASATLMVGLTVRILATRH

By IC50 is commonly meant the concentration needed to halve the response being measured. A low value points to greater potency in that assay. In the case of `N.N.[Cl][Pt+].c1ccc2c(c1)cnc1ccccc12` [phenanthriplatin, cis-[Pt(NH3)2Cl(phenanthridine)]^+], the IC50 against hMATE2K is 57 µM; on hOCT3 it was 21 µM; against mOCT1 it was 17 µM. For the same compound, the “logIC50 (logEC50) ± SEM for inhibition of ASP+ uptake” value on hMATE2K is reported as −4.24 ± 0.07; on hOCT3, −4.67 ± 0.07; on mOCT1, −4.77 ± 0.22. The “Cell viability (MTT)” value in the test on Ctr1^−/− MEFs (1 mM, 10 min) is “toxic; also recorded: still present in Ctr1^−/− MEFs even though at lower level than in Ctr1^+/+ MEFs”; in the test with Ctr1^−/− MEFs (lower concentrations (<1 mM)), “did not change the cell viability”; in the test with Ctr1^+/+ MEFs (1 mM, 10 min), “toxic”; with Ctr1^+/+ MEFs (lower concentrations (<1 mM)) it was “did not change the cell viability”.
